The values below come from patent US9403850B2, “Beta-lactamase inhibitors” (priority 2013, dated 2016).

One experiment addresses T1, VIM-2 (Escherichia coli, UniProt Q5U7L7).
T1 construct: made in house; host or cells: E. coli BL21(DE3)
The experiment can be described thus: β-Lactamase enzyme inhibition assay, VIM-2 (nitrocefin substrate). Type of experiment: biochemical. The note with it: nitrocefin substrate 100 μM, 15 min preincubation at 37° C.; read-out: IC50, Class B VIM-2. The procedure, abridged: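 Purified VIM-2 (Q sepharose anion exchange, HEPES pH 7.5) preincubated with inhibitor 15 min at 37° C. Nitrocefin added at 100 μM final; absorbance at 486 nm monitored 10 min. IC50 from inhibition of initial hydrolysis rate versus inhibitor-free controls.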

In experiment [1] the test system is E. coli ESBL4 expressing CTX-M-15. The experiment can be described thus: Broth microdilution MIC assay, partner ceftazidime. Type of experiment: cell-based. The note with it: Escherichia coli, read-out: MIC of Exemplary Compounds in presence of fixed β-lactams, Fixed CAZ, E. coli ESBL4 CTX-M-15. Background: In broth dilution the organism is exposed to a series of concentrations in liquid medium.

The test system of experiment [2] is E. cloacae 144200 expressing Class C P99 AmpC. The experiment in a line: Broth microdilution MIC assay, partner ceftazidime. Type of experiment: cell-based. The note with it: for MIC: Enterobacter cloacae, read-out: MIC of Exemplary Compounds in presence of fixed β-lactams, Fixed CAZ, E. cl. 144200 p99 AmpC.
For experiment [3], the system named is K. pneumoniae 156319 expressing KPC-3. The experiment can be described thus: Broth microdilution MIC assay, partner meropenem. The class given is cell-based. The note with it: Klebsiella pneumoniae, read-out: MIC of Exemplary Compounds in presence of fixed β-lactams, Fixed Mero, K.P. 156319 KPC-3.
Experiment [4] concerns P. aeruginosa Ps296 expressing VIM-2. The experiment in a line: Broth microdilution MIC assay, partner meropenem. Type of experiment: cell-based. The note with it: Pseudomonas aeruginosa, read-out: MIC of Exemplary Compounds in presence of fixed β-lactams, Fixed Mero, P. aerug. Ps296 VIM-2.
Experiment [5] has as its system K. pneumoniae A-1797 expressing KPC-2 and VIM-4. The experiment can be described thus: Broth microdilution MIC assay, partner meropenem. Type of experiment: cell-based. To be noted: Klebsiella pneumoniae, read-out: MIC of Exemplary Compounds in presence of fixed β-lactams, Fixed Mero, K.P. A-1797 KPC-2 VIM-4.
Experiment [6] deals with S. aureus MSSA-7 producing penicillinase PC-1. The experiment can be described thus: Broth microdilution MIC assay, partner piperacillin. Type of experiment: cell-based. The note with it: Staphylococcus aureus, fixed piperacillin 4 μg/mL, read-out: MIC of Exemplary Compounds in presence of fixed β-lactams, Fixed Pip, S. aureus MSSA-7 PC-1.

Each structure is given as a SMILES string.

The IC50 is the concentration at which inhibition is half-maximal. Usually MIC stands for the least concentration at which growth counts as inhibited.

Turning to `O=C(N[C@H]1Cc2cccc(C(=O)O)c2OB1O)c1cnc2[nH]ccc2c1` [Example 35, (R)-2-Hydroxy-3-[(1H-pyrrolo[2,3-b]pyridine-5-carbonyl)-amino]-3,4-dihydro-2H-benzo[e][1,2]oxaborinine-8-carboxylic acid], the IC50 on VIM-2 is 0.1 to 1 µM. In addition, the MIC was < 4 µg/mL in experiment [1]; < 4 µg/mL in experiment [2]; < 4 µg/mL in experiment [3]; < 4 µg/mL in experiment [4]; > 32 µg/mL in experiment [5]; < 4 µg/mL in experiment [6].

`N=C(N)N1Cc2ccc(CC(=O)N[C@H]3Cc4cccc(C(=O)O)c4OB3O)cc2C1` [Example 37, (3R)-3-[[2-(2-carbamimidoylisoindolin-5-yl)acetyl]amino]-2-hydroxy-3,4-dihydro-1,2-benzoxaborinine-8-carboxylic acid]: the IC50 on VIM-2 lay within 0.1 to 1 µM. For the same compound, the MIC in experiment [1] is < 4 µg/mL; in experiment [2], < 4 µg/mL; in experiment [3], < 4 µg/mL; in experiment [4], < 4 µg/mL; in experiment [5], > 32 µg/mL; in experiment [6], < 4 µg/mL.

As for `O=C(Cc1ccc(O)c(O)c1)N[C@H]1Cc2cccc(C(=O)O)c2OB1O` [Example 38, (R)-3-(2-(3,4-dihydroxyphenyl)acetamido)-2-hydroxy-3,4-dihydro-2H-benzo[e][1,2]oxaborinine-8-carboxylic acid], the IC50 on VIM-2 lay within 0.1 to 1 µM. The MIC in experiment [1] is < 4 µg/mL; in experiment [2] it was < 4 µg/mL; in experiment [3], < 4 µg/mL; in experiment [4], 8 to 32 µg/mL; in experiment [5], 8 to 32 µg/mL; in experiment [6], < 4 µg/mL.

In the case of `O=C(N[C@H]1Cc2cccc(C(=O)O)c2OB1O)c1ccc(O)c(O)c1` [Example 39, (R)-3-(3,4-dihydroxybenzamido)-2-hydroxy-3,4-dihydro-2H-benzo[e][1,2]oxaborinine-8-carboxylic acid], the IC50 at VIM-2 was 0.1 to 1 µM. Further, the MIC is < 4 µg/mL in experiment [1]; < 4 µg/mL in experiment [2]; < 4 µg/mL in experiment [3]; 8 to 32 µg/mL in experiment [4]; 8 to 32 µg/mL in experiment [5]; 8 to 32 µg/mL in experiment [6].

Turning to `NCCOc1ccc(C(=O)N[C@H]2Cc3cccc(C(=O)O)c3OB2O)cc1O` [Example 40, (R)-3-(4-(2-aminoethoxy)-3-hydroxybenzamido)-2-hydroxy-3,4-dihydro-2H-benzo[e][1,2]oxaborinine-8-carboxylic acid], the IC50 at VIM-2 is < 0.1 µM. Besides, the MIC in experiment [1], in experiment [2], in experiment [3], in experiment [4], in experiment [5] and in experiment [6] was < 4 µg/mL in each case.

`NCCn1ccc2ccc(C(=O)N[C@H]3Cc4cccc(C(=O)O)c4OB3O)cc21` [Example 41, (R)-3-{[1-(2-Amino-ethyl)-1H-indole-6-carbonyl]-amino}-2-hydroxy-3,4-dihydro-2H-benzo[e][1,2]oxaborinine-8-carboxylic acid]: the IC50 at VIM-2 was < 0.1 µM. Besides, the MIC in experiment [1] is < 4 µg/mL; in experiment [2] it was < 4 µg/mL; in experiment [3], > 32 µg/mL; in experiment [4], 8 to 32 µg/mL; in experiment [5], < 4 µg/mL; in experiment [6] it was < 4 µg/mL.

`NCCn1ccc2c(C(=O)N[C@H]3Cc4cccc(C(=O)O)c4OB3O)cccc21` [Example 42, (R)-3-{[1-(2-Amino-ethyl)-1H-indole-4-carbonyl]-amino}-2-hydroxy-3,4-dihydro-2H-benzo[e][1,2]oxaborinine-8-carboxylic acid]: the IC50 on VIM-2 lay in the range of 0.1 to 1 µM. Further, the MIC is < 4 µg/mL in experiment [1]; < 4 µg/mL in experiment [2]; > 32 µg/mL in experiment [3]; < 4 µg/mL in experiment [4]; 8 to 32 µg/mL in experiment [5]; < 4 µg/mL in experiment [6].

For `Cn1ccc2ccc(C(=O)N[C@H]3Cc4cccc(C(=O)O)c4OB3O)cc21` [Example 43, (R)-2-Hydroxy-3-[(1-methyl-1H-indole-6-carbonyl)-amino]-3,4-dihydro-2H-benzo[e][1,2]oxaborinine-8-carboxylic acid], on VIM-2, the IC50 was 0.1 to 1 µM. In addition, the MIC in experiment [1] was < 4 µg/mL; in experiment [2], < 4 µg/mL; in experiment [3] it was > 32 µg/mL; in experiment [4] it was > 32 µg/mL; in experiment [5] it was > 32 µg/mL; in experiment [6], < 4 µg/mL.

Turning to `NCc1cc(CN)cc(C(=O)N[C@H]2Cc3cccc(C(=O)O)c3OB2O)c1` [Example 44, (R)-3-(3,5-bis(aminomethyl)benzamido)-2-hydroxy-3,4-dihydro-2H-benzo[e][1,2]oxaborinine-8-carboxylic acid], the IC50 at VIM-2 was 1 to 10 µM. The MIC in experiment [1] is 8 to 32 µg/mL; in experiment [3] it was > 32 µg/mL; in experiment [4], > 32 µg/mL; in experiment [5], > 32 µg/mL; in experiment [6], > 32 µg/mL. Further, the “MIC of Exemplary Compounds in presence of fixed β-lactams, Fixed CAZ, E. cl. 144200 p99 AmpC” value in experiment [2] (fixed ceftazidime 4 μg/mL) is given as “A (A represents an MIC of the fixed β-lactam antibiotic in the presence of >32 μg/mL of a β-lactamase inhibitor of exemplary compounds)”.

For `N=C(N)NCc1cc(CNC(=N)N)cc(C(=O)N[C@H]2Cc3cccc(C(=O)O)c3OB2O)c1` [Example 45, (R)-3-(3,5-bis(guanidinomethyl)benzamido)-2-hydroxy-3,4-dihydro-2H-benzo[e][1,2]oxaborinine-8-carboxylic acid], the IC50 on VIM-2 was < 0.1 µM. For the same compound, the MIC in experiment [1] was < 4 µg/mL; in experiment [2], < 4 µg/mL; in experiment [3], < 4 µg/mL; in experiment [4], < 4 µg/mL; in experiment [5] it was < 4 µg/mL; in experiment [6] it was > 32 µg/mL.

`O=C(Cc1ccc2cc[nH]c2c1)N[C@H]1Cc2cccc(C(=O)O)c2OB1O` [Example 46, (R)-2-Hydroxy-3-(2-1H-indol-6-yl-acetylamino)-3,4-dihydro-2H-benzo[e][1,2]oxaborinine-8-carboxylic acid]: at VIM-2, the IC50 is < 0.1 µM. Moreover, the MIC in experiment [1] was < 4 µg/mL; in experiment [2], < 4 µg/mL; in experiment [3], < 4 µg/mL; in experiment [4], < 4 µg/mL; in experiment [5] it was < 4 µg/mL; in experiment [6], 8 to 32 µg/mL.

As to `O=C(N[C@H]1Cc2cccc(C(=O)O)c2OB1O)c1ccc(-c2ncc[nH]2)cc1` [Example 47, (R)-2-Hydroxy-3-[4-(1H-imidazol-2-yl)-benzoylamino]-3,4-dihydro-2H-benzo[e][1,2]oxaborinine-8-carboxylic acid], the IC50 on VIM-2 fell in the range of 0.1 to 1 µM. Moreover, the MIC in experiment [1] was < 4 µg/mL; in experiment [2], < 4 µg/mL; in experiment [3], < 4 µg/mL; in experiment [4], 8 to 32 µg/mL; in experiment [5] it was > 32 µg/mL; in experiment [6], < 4 µg/mL.

As to `CN1Cc2ccc(CC(=O)N[C@H]3Cc4cccc(C(=O)O)c4OB3O)cc2C1` [Example 48, (R)-2-Hydroxy-3-[2-(2-methyl-2,3-dihydro-1H-isoindol-5-yl)-acetylamino]-3,4-dihydro-2H-benzo[e][1,2]oxaborinine-8-carboxylic acid], the IC50 on VIM-2 was < 0.1 µM. Further, the MIC in experiment [1], in experiment [2], in experiment [3], in experiment [4], in experiment [5] and in experiment [6] was < 4 µg/mL in each case.

On to `NCCN1Cc2ccc(CC(=O)N[C@H]3Cc4cccc(C(=O)O)c4OB3O)cc2C1` [Example 49, (R)-3-{2-[2-(2-Amino-ethyl)-2,3-dihydro-1H-isoindol-5-yl]-acetylamino}-2-hydroxy-3,4-dihydro-2H-benzo[e][1,2]oxaborinine-8-carboxylic acid], for which the IC50 at VIM-2 was 0.1 to 1 µM. For the same compound, the MIC in experiment [1] is < 4 µg/mL; in experiment [2] it was < 4 µg/mL; in experiment [3] it was < 4 µg/mL; in experiment [4] it was < 4 µg/mL; in experiment [5], > 32 µg/mL; in experiment [6] it was < 4 µg/mL.

With `O=C(N[C@H]1Cc2cccc(C(=O)O)c2OB1O)c1cnc2c(c1)CNC2` [Example 50, (3R)-3-(6,7-dihydro-5H-pyrrolo[3,4-b]pyridine-3-carbonylamino)-2-hydroxy-3,4-dihydro-1,2-benzoxaborinine-8-carboxylic acid], the concentration for half-maximal inhibition (IC50) at VIM-2 lay within 0.1 to 1 µM. The MIC is < 4 µg/mL in experiment [1]; < 4 µg/mL in experiment [2]; < 4 µg/mL in experiment [3]; < 4 µg/mL in experiment [4]; > 32 µg/mL in experiment [5]; < 4 µg/mL in experiment [6].

In the case of `O=C(Cc1ccc2c(c1)CNCC2)N[C@H]1Cc2cccc(C(=O)O)c2OB1O` [Example 51, (R)-2-Hydroxy-3-(2-1,2,3,4-tetrahydro-isoquinolin-7-yl-acetylamino)-3,4-dihydro-2H-benzo[e][1,2]oxaborinine-8-carboxylic acid], the IC50 on VIM-2 is < 0.1 µM. Further, the MIC in experiment [1], in experiment [2], in experiment [3], in experiment [4], in experiment [5] and in experiment [6] was < 4 µg/mL in each case.
